The assay concerns the target human PAD4 (Homo sapiens (Human), UniProt Q9UM07). Briefly: In Vitro PAD4 BAEE Biochemical Assay. To be noted: geometric mean of multiple experiments. The method in brief:
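Deimination of BAEE substrate (3 mM) measured as ammonia via o-phthalaldehyde–DTT isoindole fluorescence, 405/535 nm. Tag-free bacterially expressed human PAD4 at 5 nM with 2 mM calcium chloride, pH 7.6 MOPS buffer, 30 min compound preincubation then 2 h reaction, both at 25 °C.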

Where [1] appears, read: human PAD4, BAEE substrate, 5 nM PAD4, 2 mM calcium chloride, 3 mM BAEE.
Where [2] appears, read: recombinant PAD4 5 nM, 2 mM calcium chloride, 3 mM BAEE substrate.

Chain of human PAD4 (Q9UM07 2-663): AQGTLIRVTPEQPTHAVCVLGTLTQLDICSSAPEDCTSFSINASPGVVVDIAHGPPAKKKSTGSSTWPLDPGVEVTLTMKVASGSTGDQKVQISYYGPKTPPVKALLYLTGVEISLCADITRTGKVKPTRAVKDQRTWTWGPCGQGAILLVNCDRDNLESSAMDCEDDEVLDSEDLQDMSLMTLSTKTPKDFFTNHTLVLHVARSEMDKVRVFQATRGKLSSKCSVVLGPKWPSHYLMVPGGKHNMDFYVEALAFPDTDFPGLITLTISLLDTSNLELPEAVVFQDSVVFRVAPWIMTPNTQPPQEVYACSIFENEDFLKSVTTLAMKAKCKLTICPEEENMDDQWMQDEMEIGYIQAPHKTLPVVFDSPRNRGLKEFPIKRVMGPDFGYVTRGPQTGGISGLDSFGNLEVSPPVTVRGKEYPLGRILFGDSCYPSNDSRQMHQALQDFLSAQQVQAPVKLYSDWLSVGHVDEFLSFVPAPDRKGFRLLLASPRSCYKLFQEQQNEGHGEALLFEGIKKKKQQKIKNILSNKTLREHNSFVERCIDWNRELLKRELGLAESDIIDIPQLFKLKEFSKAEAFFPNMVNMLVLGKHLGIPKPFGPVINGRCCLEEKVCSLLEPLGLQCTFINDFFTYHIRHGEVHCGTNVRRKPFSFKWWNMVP

`COc1cc(C(=O)N2C[C@H](N)CCN2C)cc2nc(-c3cc4ccc([C@@H](C)NC(=O)C5(CCF)CC5)nc4n3CC3CC3)n(C)c12` [Example 215, N-((R)-1-(2-(5-((R)-5-amino-2-methylhexahydropyridazine-1-carbonyl)-7-methoxy-1-methyl-1H-benzo[d]imidazol-2-yl)-1-(cyclopropylmethyl)-1H-pyrrolo[2,3-b]pyridin-6-yl)ethyl)-1-(2-fluoroethyl)cyclopropane-1-carboxamide]: the IC50 under setting [1] was found to be 111 nM.
For the compound `COc1cc(C(=O)N2C[C@H](N)[C@@H]3CC[C@H]2C3)cc2nc(-c3cc4ccc([C@@H](C)NC(=O)C5(C(F)F)CC5)nc4n3CC3CC3)n(C)c12` [Example 324, N-((R)-1-(2-(5-((1S,4R,5R)-4-amino-2-azabicyclo[3.2.1]octane-2-carbonyl)-7-methoxy-1-methyl-1H-benzo[d]imidazol-2-yl)-1-(cyclopropylmethyl)-1H-pyrrolo[2,3-b]pyridin-6-yl)ethyl)-1-(difluoromethyl)cyclopropane-1-carboxamide], the IC50 under setting [2] came to 81.1 nM.
For the compound “2-(1-(cyclopropylmethyl)- 6-((N-(difluoromethyl) methyl)sulfonamido)- 1H-pyrrolo[2,3-b]pyridin-2- yl)-6-fluoro-N-((3S,4S)- 4-fluoropiperidin- 3-yl)-1-methyl-1H- benzo[d]imidazole-5- carboxamide [Example 93]”, the concentration for half-maximal inhibition (IC50) under setting [1] came out at 146 nM.
`COc1cc(C(=O)N2C[C@H]3CC[C@@H]2[C@@H]3N)cc2nc(-c3cc4ccc(N5[C@@H](C)CCCS5(=O)=O)nc4n3CC3CC3)n(C)c12` [Example 104, ((1R,4R,7R)-7-amino-2-azabicyclo[2.2.1]heptan-2-yl) (2-(1-(cyclopropylmethyl)-6-((S)-3-methyl-1,1-dioxido-1,2-thiazinan-2-yl)-1H-pyrrolo[2,3-b]pyridin-2-yl)-7-methoxy-1-methyl-1H-benzo[d]imidazol-5-yl) methanone]: the half-maximal inhibitory concentration (IC50) under setting [1] was found to be 79.3 nM.
On the same count and under the same terms, under `COc1cc(C(=O)N2C[C@H](N)CC[C@@H]2C)cc2nc(-c3cc4ccc(-c5cccnc5-c5cncs5)nc4n3CC3CC3)n(C)c12` [Example 267, ((2S,5R)-5-amino-2-methylpiperidin-1-yl)(2-(1-(cyclopropylmethyl)-6-(2-(thiazol-5-yl)pyridin-3-yl)-1H-pyrrolo[2,3-b]pyridin-2-yl)-7-methoxy-1-methyl-1H-benzo[d]imidazol-5-yl)methanone] stands 138 nM; under `COc1cc(C(=O)N2CCC[C@@H](N)C2)cc2nc(-c3cc4ccc(N(CC(F)(F)F)S(C)(=O)=O)nc4n3CC3CC3)n(C)c12` [Example 16, (R)-N-(2-(5-(3-aminopiperidine-1-carbonyl)-7-methoxy-1-methyl-1H-benzo[d]imidazol-2-yl)-1-(cyclopropylmethyl)-1H-pyrrolo [2,3-b]pyridin-6-yl)-N-(2,2,2-trifluoroethyl) methanesulfonamide], 316 nM; under `COc1cc(C(=O)N2CCC[C@@H](N)C2)cc2nc(-c3cc4ccc([C@@H](C)NC(=O)c5ccccc5)cc4n3CC3CC3)n(C)c12` [Example 137, N-((R)-1-(2-(5-((R)-3-aminopiperidine-1-carbonyl)-7-methoxy-1-methyl-1H-benzo[d]imidazol-2-yl)-1-(cyclopropylmethyl)-1H-indol-6-yl)ethyl)benzamide], 37.2 nM.
The same measure, in the same setting: under `COc1cc(C(=O)N2[C@H]3CC[C@@H]2[C@H](N)C3)cc2nc(-c3cc4ccc(-n5c(C)cccc5=O)nc4n3CC3CC3)n(C)c12` [Example 255, 1-(2-(5-((1R,2R,4S)-2-amino-7-azabicyclo[2.2.1]heptane-7-carbonyl)-7-methoxy-1-methyl-1H-benzo[d]imidazol-2-yl)-1-(cyclopropylmethyl)-1H-pyrrolo[2,3-b]pyridin-6-yl)-6-methylpyridin-2(1H)-one] stands 40.2 nM.
On the same count and under the same terms, next, `Cc1cc2c(cc1C(=O)N1C[C@H]3CC[C@@H]1[C@@H]3N)nc(-c1cc3ccc(N(C(F)F)S(C)(=O)=O)nc3n1CC1CC1)n2C1CC1` [Example 59, N-(2-(5-((1R,4R,7R)-7-amino-2-azabicyclo[2.2.1]heptane-2-carbonyl)-1-cyclopropyl-6-methyl-1H-benzo[d]imidazol-2-yl)-1-(cyclopropylmethyl)-1H-pyrrolo [2,3-b]pyridin-6-yl)-N-(difluoromethyl) methanesulfonamide]: 9410 nM.
On to `COC(=O)N(C)c1ccc2cc(-c3nc4cc(C(=O)N5CCC[C@@H](N)C5)cc(OC)c4n3C)n(CC3CC3)c2n1` [Example 109, (R)-methyl (2-(5-(3-aminopiperidine-1-carbonyl)-7-methoxy-1-methyl-1H-benzo[d]imidazol-2-yl)-1-(cyclopropylmethyl)-1H-pyrrolo[2,3-b]pyridin-6-yl) (methyl)carbamate], for which the IC50 under setting [1] worked out at 401 nM.
For `COc1cc(C(=O)N2C[C@H](N)[C@@H]3CC[C@H]2C3)cc2nc(-c3cc4ccc([C@@H](C)NC(=O)c5cnn(C6CC6)c5)nc4n3CC3CC3)n(C)c12` [Example 319, N-((R)-1-(2-(5-((1S,4R,5R)-4-amino-2-azabicyclo[3.2.1]octane-2-carbonyl)-7-methoxy-1-methyl-1H-benzo[d]imidazol-2-yl)-1-(cyclopropylmethyl)-1H-pyrrolo[2,3-b]pyridin-6-yl)ethyl)-1-cyclopropyl-1H-pyrazole-4-carboxamide], the IC50 under setting [2] turned out to be 58 nM.
On the same count and under the same terms, under `COc1cc(C(=O)N2C[C@H](N)[C@@H]3CC[C@H]2C3)cc2nc(-c3cc4ccc([C@@H](C)NC(=O)c5cnc(C(F)(F)F)nc5)nc4n3CC3CC3)n(C)c12` [Example 314, N-((R)-1-(2-(5-((1S,4R,5R)-4-amino-2-azabicyclo[3.2.1]octane-2-carbonyl)-7-methoxy-1-methyl-1H-benzo[d]imidazol-2-yl)-1-(cyclopropylmethyl)-1H-pyrrolo[2,3-b]pyridin-6-yl)ethyl)-2-(trifluoromethyl)pyrimidine-5-carboxamide] stands 140 nM.
Regarding `COc1cc(C(=O)N2C[C@H](N)CCN2C)cc2nc(-c3cc4ccc([C@@H](C)NC(=O)c5ncccn5)nc4n3CC3CC3)n(C)c12` [Example 180, N-((R)-1-(2-(5-((R)-5-amino-2-methylhexahydropyridazine-1-carbonyl)-7-methoxy-1-methyl-1H-benzo[d]imidazol-2-yl)-1-(cyclopropylmethyl)-1H-pyrrolo[2,3-b]pyridin-6-yl)ethyl)pyrimidine-2-carboxamide], the half-inhibitory concentration (IC50) under setting [1] was determined as 28.8 nM.
On the same count and under the same terms, next, `COc1cc(C(=O)N2C[C@@H]3CC[C@@](N)(C3)C2)cc2nc(-c3cc4ccc(N(C(F)F)S(C)(=O)=O)nc4n3CC3CC3)n(C)c12` [Example 61, N-(2-(5-((1R,5R)-1-amino-3-azabicyclo[3.2.1]octane-3-carbonyl)-7-methoxy-1-methyl-1H-benzo[d]imidazol-2-yl)-1-(cyclopropylmethyl)-1H-pyrrolo[2,3-b]pyridin-6-yl)-N-(difluoromethyl) methanesulfonamide]: 36800 nM.
On the same count and under the same terms, under `COc1cc(C(=O)N2C[C@H](N)CCN2C)cc2nc(-c3cc4ccc([C@@H](C)NC(=O)[C@H](C)c5ccccc5)nc4n3CC3CC3)n(C)c12` [Example 164, (R)-N-((R)-1-(2-(5-((R)-5-amino-2-methylhexahydropyridazine-1-carbonyl)-7-methoxy-1-methyl-1H-benzo[d]imidazol-2-yl)-1-(cyclopropylmethyl)-1H-pyrrolo[2,3-b]pyridin-6-yl)ethyl)-2-phenylpropanamide] stands 148 nM.

The values are drawn from patent publication US11878965B2, “Inhibitors of peptidylarginine deiminases” (Gilead Sciences, Inc., priority 2020, dated 2024).
